Laboratory results from publication PMC4416786, “Validation of a P-Glycoprotein (P-gp) Humanized Mouse Model by Integrating Selective Absolute Quantification of Human MDR1, Mouse Mdr1a and Mdr1b Protein Expressions with In Vivo Functional Analysis for Blood-Brain Barrier Transport” (PLoS ONE, 2015).
Read-outs that look alike come from different tables or passages of the source.

Columns and labels:
[1] = in vitro
Protocol: Equilibrium dialysis was performed to measure the plasma unbound fraction of the drugs studied, and to measure possible differences in the plasma protein binding between hMDR1 and C57BL/6 WT mice. A high throughput, 96 well equilibrium dialysis apparatus (Model HTD96b, HTDialysis, Connecticut, USA) with dialysis membrane strips with a molecular weight cut-off of 12–14 kDa was used. The concentrations of the substances were the same as those achieved in plasma during the in vivo experiments. One side of each well used was loaded with 125 μl of plasma spiked with drug and the other side was loaded with 125 μl phosphate buffer saline (PBS). The top surface of the Teflon block was then sealed with an adhesive film. […] Triplicates of the same concentration for each compound were measured. After the incubation period 80 μl from the buffer side was added into 80 μl of blank mouse plasma and 80 μl from the plasma was added into 80 μl of PBS. Samples were stored at -20 until analysis.

[2] = test system: human P-gp (hMDR1); details: mouse, in vivo
[3] = molecular target: T1, P-gp (Mus musculus, UniProt P21447); details: in vivo
Protocol: Brain to plasma total concentration ratios (Kp) of the substances were measured for each animal. Unbound volume of distribution in brain (Vu, brain) was measured with the brain slice method [14] and fraction unbound in plasma (fu, p) was measured with high throughput equilibrium dialysis.
All the substances were administered subcutaneously except docetaxel, which was given intravenously in the tail vein as a slow injection over five minutes due to its tissue irritating character. […] The volume administered of all substances was 0.01 ml/g_body weight.
Blood was collected with a pre-heparinized syringe by cardiac puncture and was centrifuged for 5 minutes at 10000 rpm to obtain plasma. Brain was also sampled. The brain was divided in two equal parts and frozen on dry ice before weighed. All the samples were stored at -80°C until analysis.
(§1) The total brain concentration (ng/g brain tissue) of the substance was divided with the total plasma concentration (ng/ml) of the substance to obtain the tissue partition ratio (Kp), which was compared between the groups of mice. […] The the fraction unbound in plasma (fu, p) measured with equilibrium dialysis was used in the calculations.

[4] = C57BL/6, mouse, 5 h, 200 nM
[5] = molecular target: mouse P-gp (Mus musculus, UniProt P21447); test: in vivo; details: C57BL/6, mouse
[6] = test system: human P-gp (hMDR1); test: in vivo; details: hMDR1 (MDR1 humanized), mouse
[7] = test system: human P-gp (hMDR1); details: digoxin 1 mg/kg s.c.; blocker one hour before digoxin
Source text: as §1

[8] = molecular target: T1, P-gp; details: C57BL/6 WT mice, oxycodone 1 mg/kg s.c., cyclosporine A 100 mg/kg i.p., verapamil 3 mg/kg s.c. or elacridar 6 mg/kg s.c. one hour before
Source text: Brain and liver were sampled after sacrificing the animal.
as §1

[9] = test system: P-gp; set-up: method as in PMID 16850390; details: cited from earlier work
[10] = test system: P-gp; details: rats; cited from earlier work
[11] = test system: P-gp; set-up: method as in PMID 19047468; details: PET imaging; cited from earlier work
[12] = molecular target: T1, P-gp; set-up: hMDR1 and C57BL/6 WT mice; from tissue; host or cells: blood-brain barrier (brain capillaries) of living male C57BL/6 WT mice; method as in PMID 7910522; details: cited from earlier work
[13] = hMDR1 (MDR1 humanized), mouse, plasma

T1 sequence (P21447 whole entry): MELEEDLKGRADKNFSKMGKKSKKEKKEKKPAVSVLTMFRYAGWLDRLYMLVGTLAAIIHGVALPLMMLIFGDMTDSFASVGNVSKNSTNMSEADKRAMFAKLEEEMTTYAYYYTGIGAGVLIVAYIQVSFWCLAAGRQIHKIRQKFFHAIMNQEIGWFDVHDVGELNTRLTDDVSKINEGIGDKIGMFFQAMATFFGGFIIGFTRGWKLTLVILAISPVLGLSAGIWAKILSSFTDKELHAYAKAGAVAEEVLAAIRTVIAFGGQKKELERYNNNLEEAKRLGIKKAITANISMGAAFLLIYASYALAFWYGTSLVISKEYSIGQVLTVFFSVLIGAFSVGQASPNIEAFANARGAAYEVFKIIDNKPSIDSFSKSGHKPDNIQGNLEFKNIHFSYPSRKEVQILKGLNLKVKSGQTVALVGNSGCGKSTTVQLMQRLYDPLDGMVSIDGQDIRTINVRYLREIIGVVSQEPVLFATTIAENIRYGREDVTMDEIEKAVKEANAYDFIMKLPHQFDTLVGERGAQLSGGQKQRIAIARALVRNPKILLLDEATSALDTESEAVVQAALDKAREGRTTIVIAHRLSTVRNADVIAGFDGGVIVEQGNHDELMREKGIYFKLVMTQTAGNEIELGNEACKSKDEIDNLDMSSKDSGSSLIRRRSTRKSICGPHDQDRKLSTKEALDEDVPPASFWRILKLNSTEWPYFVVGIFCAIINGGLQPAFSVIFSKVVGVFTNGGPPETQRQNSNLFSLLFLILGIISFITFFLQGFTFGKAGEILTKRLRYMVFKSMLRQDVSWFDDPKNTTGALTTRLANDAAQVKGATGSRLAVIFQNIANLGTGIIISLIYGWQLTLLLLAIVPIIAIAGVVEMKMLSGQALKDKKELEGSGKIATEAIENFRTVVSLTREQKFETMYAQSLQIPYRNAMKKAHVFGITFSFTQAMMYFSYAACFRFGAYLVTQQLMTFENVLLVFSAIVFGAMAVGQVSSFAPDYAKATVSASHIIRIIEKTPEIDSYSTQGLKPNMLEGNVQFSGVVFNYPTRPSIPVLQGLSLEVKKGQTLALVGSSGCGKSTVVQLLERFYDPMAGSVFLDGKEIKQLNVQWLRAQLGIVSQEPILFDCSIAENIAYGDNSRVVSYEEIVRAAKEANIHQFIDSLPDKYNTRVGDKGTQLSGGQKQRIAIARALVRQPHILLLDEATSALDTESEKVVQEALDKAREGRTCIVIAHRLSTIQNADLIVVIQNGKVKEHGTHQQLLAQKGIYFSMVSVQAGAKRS
Chain of mouse P-gp (P21447 whole entry): as above

SMILES: C[C@H]1O[C@@H](O[C@H]2[C@@H](O)C[C@H](O[C@H]3[C@@H](O)C[C@H](O[C@H]4CC[C@@]5(C)[C@H](CC[C@@H]6[C@@H]5C[C@@H](O)[C@]5(C)[C@@H](C7=CC(=O)OC7)CC[C@]65O)C4)O[C@@H]3C)O[C@@H]2C)C[C@H](O)[C@@H]1O [Digoxin]
- fraction unbound ([1]; C57BL/6, mouse, plasma): 0.594
- fraction unbound [1, 13]: 0.607

SMILES: CC(=O)O[C@@]12CO[C@@H]1C[C@H](O)[C@@]1(C)C(=O)[C@H](O)C3=C(C)[C@@H](OC(=O)[C@H](O)[C@@H](NC(=O)OC(C)(C)C)c4ccccc4)C[C@@](O)([C@@H](OC(=O)c4ccccc4)[C@H]21)C3(C)C [Docetaxel]
- fraction unbound ([1]; C57BL/6, mouse, plasma): 0.053
- fraction unbound [1, 13]: 0.052
- Kp in hMDR1 mice relative to C57BL/6 WT mice [2]: 2 times
- Kp in Mdr1a/1b(-/-) mice relative to FVB WT controls [3]: 4 times
- Vu, brain [4]: 789 ml/g_brain
- Vu, brain (nonspecific binding to brain parenchymal tissue) [4]: 789 ml*g_brain^-1
- Kp uu at 1 h [5]: 0.002
- Kp uu at 1 h [6]: 0.003

SMILES: COc1cc2c(cc1OC)CN(CCc1ccc(NC(=O)c3cccc4c(=O)c5cccc(OC)c5[nH]c34)cc1)CC2 [Elacridar]
- Digoxin Kp in hMDR1 mice compared to C57BL/6 WT controls when treated with the blocker [7]: significantly higher
- Effect of the P-gp blocker on oxycodone Kp [8]: not changed
- Effect of the P-gp blocker on oxycodone Kp ([8]; listed as elacridar (GF120918)): no effect
- Blood concentration needed in guinea pigs to obtain the same inhibition as in rats and mice [9]: higher blood concentration

SMILES: COc1ccc2c3c1O[C@H]1C(=O)CC[C@@]4(O)[C@@H](C2)N(C)CC[C@]314 [Oxycodone]
- fraction unbound ([1]; C57BL/6, mouse): 0.681
- fraction unbound ([1]; hMDR1 (MDR1 humanized), mouse): 0.681

SMILES: C/C=C/C[C@@H](C)C(=O)[C@H]1C(=O)N[C@@H](C(C)C)C(=O)N(C)CC(=O)N(C)[C@@H](CC(C)C)C(=O)N[C@@H](C(C)C)C(=O)N(C)[C@@H](CC(C)C)C(=O)N[C@@H](C)C(=O)N[C@H](C)C(=O)N(C)[C@@H](CC(C)C)C(=O)N(C)[C@@H](CC(C)C)C(=O)N(C)[C@@H](C(C)C)C(=O)N1C [PSC833]
- Effect of the P-gp blocker on the tail-flick latency of oxycodone [10]: no effect

SMILES: C=C[C@H]1C[N@@]2CC[C@H]1C[C@@H]2[C@@H](O)c1ccnc2ccc(OC)cc12 [Quinidine, Quinidine gluconate]
- Digoxin Kp in hMDR1 mice compared to C57BL/6 WT controls when treated with the blocker [7]: significantly higher

SMILES: O=C(c1ccc([18F])cc1)C1CCN(CCn2c(=S)[nH]c3ccccc3c2=O)CC1 [[18F]altanserine]
- Brain penetration in humans relative to rodents [11]: 4.5 times

SMILES: CC[C@]1(O)C[C@@H]2CN(CCc3c([nH]c4ccccc34)[C@@](C(=O)OC)(c3cc4c(cc3OC)N(C)[C@H]3[C@@](O)(C(=O)OC)[C@H](OC(C)=O)[C@]5(CC)C=CCN6CC[C@]43[C@@H]65)C2)C1 [vinblastine]
- Sensitivity of Mdr1a(-/-) mice compared to wild type controls [12]: 3 fold
